Data published in the supplement of paper PMC10307832.

Key:
Experiment in all cases: relative viability (nuclei count vs DMSO), 5 days (fraction); higher = more cells survive
[1] = compound: Cn1c(=O)n(-c2ccc(C(C)(C)C#N)cc2)c2c3cc(-c4cnc5ccccc5c4)ccc3ncc21 [Dactolisib] + CC(=O)Nc1cccc(-n2c(=O)n(C3CC3)c(=O)c3c(Nc4ccc(I)cc4F)n(C)c(=O)c(C)c32)c1 [Trametinib] (partner 0.02 µM)
In short: (§1)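 A single step with final 0.05% Triton X-100, 1% formaldehyde and 1 ug/ml Hoechst fixed the cells and stained nuclei 5 days after treatment. Lung cancer cell lines in 1536-well plates had been treated by pin tool the day after seeding with one drug alone or a fixed anchor-drug dose plus five library-drug doses (not always all listed) in √10 steps, and nuclei were counted on 4× images. Relative viability is the ratio of nuclei in treated wells to nuclei in vehicle wells, taken as the median of duplicate plates.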

[2] = compound: C1CCC(CC1)N(CCNCCC2=C3C(=C(C=C2)O)NC(=O)CO3)C(=O)CCNCCC4=CC(=C(C=C4)Cl)Cl [AZ505] + CC(C)C[C@H](NC(=O)[C@H](Cc1ccccc1)NC(=O)c1cnccn1)B(O)O [Bortezomib] (partner 0.002 µM)
In short: as §1

[3] = compound: C1CCC(CC1)N(CCNCCC2=C3C(=C(C=C2)O)NC(=O)CO3)C(=O)CCNCCC4=CC(=C(C=C4)Cl)Cl [AZ505] + Cc1nc(Nc2ncc(C(=O)Nc3c(C)cccc3Cl)s2)cc(N2CCN(CCO)CC2)n1 [Dasatinib] (partner 0.075 µM)
In short: as §1

[4] = compound: Cn1c(=O)n(-c2ccc(C(C)(C)C#N)cc2)c2c3cc(-c4cnc5ccccc5c4)ccc3ncc21 [Dactolisib] + COc1cc2c(Oc3ccc(NC(=O)C4(C(=O)Nc5ccc(F)cc5)CC4)cc3F)ccnc2cc1OCCCN1CCOCC1 [Foretinib] (partner 0.25 µM)
In short: as §1

Cell Line	relative viability ([1]; first compound 0.002 µM)	relative viability ([1]; first compound 0.006325 µM)	relative viability ([1]; first compound 0.02 µM)	relative viability ([1]; first compound 0.06325 µM)	relative viability ([1]; first compound 0.2 µM)	relative viability ([2]; first compound 0.08 µM)	relative viability ([2]; first compound 0.253 µM)	relative viability ([2]; first compound 0.8 µM)	relative viability ([2]; first compound 2.53 µM)	relative viability ([2]; first compound 8 µM)	relative viability ([3]; first compound 0.08 µM)	relative viability ([3]; first compound 0.253 µM)	relative viability ([3]; first compound 0.8 µM)	relative viability ([3]; first compound 2.53 µM)	relative viability ([3]; first compound 8 µM)	relative viability ([4]; first compound 0.002 µM)	relative viability ([4]; first compound 0.006325 µM)	relative viability ([4]; first compound 0.02 µM)	relative viability ([4]; first compound 0.06325 µM)	relative viability ([4]; first compound 0.2 µM)
NCI-H2087	0.229	0.217	0.214	0.127	0.114	0.686	0.845	0.732	0.849	0.91	0.832	0.669	0.808	0.551	0.884	0.979	0.919	0.817	0.378	0.33
LC-2-ad	0.838	0.883	0.99	0.969	0.863	1	1.04	0.915	1.01	1.03	0.578	0.564	0.558	0.604	0.665	1.08	0.917	0.839	0.545	0.551
NCI-H1915	0.32	0.296	0.304	0.229	0.178	0.86	0.968	0.861	0.87	0.978	0.28	0.298	0.269	0.275	0.337	1.19	1.06	1.08	0.832	0.467
NCI-H2023	0.582	0.461	0.304	0.103	0.0921	0.845	0.872	0.911	1.18	1.01	0.509	0.534	0.58	0.503	0.732	–	0.672	0.491	0.343	0.153
COR-L 105	0.43	0.413	0.4	0.425	0.394	0.712	0.907	0.813	0.65	0.77	0.383	0.352	0.318	0.342	0.367	0.926	1	0.832	0.859	0.417
RERF-LC-KJ	0.86	0.902	0.772	0.407	0.467	1.02	1.02	1.18	1.09	1.12	0.72	0.772	0.763	0.743	0.752	0.852	0.826	0.87	0.527	0.399
LXF-289	0.709	0.629	0.633	0.559	0.379	0.875	–	1.02	0.975	1.02	0.231	0.189	0.169	0.249	0.181	1.02	0.952	0.99	0.987	0.827
PC-14	0.81	0.583	0.367	0.0961	0.0834	0.776	0.877	0.882	0.768	0.841	0.219	0.241	0.296	0.264	0.227	0.982	0.97	0.973	0.592	0.399
NCI-H650	1.04	0.906	0.942	0.527	0.424	0.607	0.793	0.818	1.02	0.775	0.425	0.408	0.447	0.547	0.452	0.981	1.02	1.05	0.712	0.426
NCI-H1666	0.855	0.804	0.835	0.734	0.742	0.799	0.708	0.658	0.778	0.705	0.745	0.795	0.783	0.828	0.69	0.968	0.993	0.987	0.791	0.762
NCI-H2085	0.712	0.455	0.241	0.266	0.231	0.958	1.01	0.934	1.05	1.1	0.246	0.242	0.234	0.252	0.237	1.09	1.05	0.747	0.337	0.301
NCI-H1734	0.69	0.557	0.624	0.374	0.25	0.78	0.978	0.976	0.936	0.861	0.456	0.467	0.482	0.478	0.417	0.837	0.773	0.805	0.467	0.284
NCI-H2126	0.557	0.548	0.433	0.38	0.306	1.11	1.09	1.08	1.09	1.04	0.578	0.579	0.601	0.646	0.586	1.32	1.24	1.08	0.653	0.498
EMC-BAC-2	0.897	0.866	0.839	0.461	0.375	0.988	1.03	0.972	1.01	1.1	0.312	0.329	0.322	0.35	0.354	1.04	0.976	0.984	0.501	0.484
NCI-H1993	0.514	0.455	0.504	0.389	0.421	0.894	1.09	0.937	1.25	1.04	0.653	0.722	0.611	0.623	0.737	0.706	0.774	0.61	0.473	0.492
NCI-H520	0.61	0.585	0.354	0.147	0.102	0.588	0.504	0.496	0.706	0.762	0.198	0.217	0.181	0.229	0.26	0.736	0.507	0.464	0.278	0.198

Cell Line	relative viability ([1]; first compound 0.002 µM)	relative viability ([1]; first compound 0.006325 µM)	relative viability ([1]; first compound 0.02 µM)	relative viability ([1]; first compound 0.06325 µM)	relative viability ([1]; first compound 0.2 µM)	relative viability ([2]; first compound 0.08 µM)	relative viability ([2]; first compound 0.253 µM)	relative viability ([2]; first compound 0.8 µM)	relative viability ([2]; first compound 2.53 µM)	relative viability ([2]; first compound 8 µM)	relative viability ([3]; first compound 0.08 µM)	relative viability ([3]; first compound 0.253 µM)	relative viability ([3]; first compound 0.8 µM)	relative viability ([3]; first compound 2.53 µM)	relative viability ([3]; first compound 8 µM)	relative viability ([4]; first compound 0.002 µM)	relative viability ([4]; first compound 0.006325 µM)	relative viability ([4]; first compound 0.02 µM)	relative viability ([4]; first compound 0.06325 µM)	relative viability ([4]; first compound 0.2 µM)
NCI-H647	0.381	0.42	0.291	0.118	0.103	1.07	1.13	1	1.19	1.01	0.233	0.104	0.158	0.194	0.162	1.15	1.18	1.16	0.211	0.395
SW 1573	0.529	0.438	0.482	0.144	0.163	0.907	1.08	0.939	1.12	1.08	0.476	0.605	0.414	0.594	0.426	0.996	0.964	0.875	0.34	0.371
ChaGo-K-1	0.846	0.912	0.91	0.813	0.791	0.945	0.91	1.04	1	1.13	0.663	0.702	0.616	0.657	0.604	0.908	0.919	0.886	0.835	0.926
NCI-H1650	0.63	0.614	0.503	0.339	0.22	0.234	0.189	0.205	0.248	0.188	0.298	0.281	0.37	0.321	0.295	1.08	1.05	0.919	0.781	0.531
NCI-H2009	0.276	0.272	0.213	0.154	0.126	0.982	0.929	1.04	0.657	0.901	0.221	0.267	0.219	0.237	0.242	1.28	1.24	1.06	1.2	0.625
LOU-NH91	0.778	0.714	0.679	0.557	0.612	0.46	0.508	0.536	0.527	0.453	0.536	0.537	0.452	0.53	0.601	0.897	0.921	0.9	0.658	0.548
NCI-H2405	0.469	0.665	0.56	0.389	0.253	0.733	0.802	0.81	0.859	0.925	0.187	0.151	0.133	0.203	0.176	1.02	1.06	1.05	0.606	0.475
LCLC-97TM1	0.2	0.187	0.167	0.135	0.104	0.579	0.461	0.461	–	1.08	0.77	0.795	0.767	0.674	0.88	1.05	0.923	0.688	0.668	0.367
NCI-H596	0.776	0.7	0.496	0.491	0.298	0.963	0.847	0.756	1.19	1.03	0.605	0.577	0.591	0.657	0.56	0.83	0.809	0.473	0.316	0.242
NCI-H727	–	0.42	0.358	0.401	0.373	0.728	0.708	0.767	0.747	0.934	0.28	0.274	0.372	–	0.504	0.906	0.882	0.762	0.4	0.425
H3255	0.657	0.58	0.507	0.539	0.455	0.558	0.812	0.817	0.804	0.758	0.368	0.316	0.369	0.388	0.483	0.989	0.851	0.793	0.724	0.772
NCI-H1437	0.558	0.507	0.487	0.369	0.292	0.551	0.453	0.49	0.405	0.743	0.346	0.334	0.58	0.378	0.376	1.37	1.28	1.25	1.24	1.34
LU99A	0.527	0.493	0.4	0.286	0.192	1.02	1.08	1.05	1.18	1.18	–	0.475	0.618	0.48	0.536	0.742	0.75	0.582	0.386	0.312
HCC-827	0.582	0.563	0.477	0.313	0.269	0.92	0.957	1.01	1	1.1	0.399	0.35	0.385	0.313	0.407	0.995	1.04	0.913	0.815	0.283
HCC-366	0.367	0.299	0.238	0.107	0.101	0.933	1.01	1.02	0.952	1.11	0.604	0.625	0.78	0.527	0.608	0.914	0.986	0.955	0.94	0.368
BEN	0.925	0.952	0.959	0.61	0.411	0.744	0.806	0.809	0.861	0.842	0.359	0.327	0.386	0.355	0.296	0.898	0.632	0.647	0.57	0.422
